In patent EP2711367A1, “New spiroepoxide tetrahydrobenzo-triazoles and -imidazoles and their use as MetAP-II inhibitors” (Deutsches Krebsforschungszentrum, priority 2012, dated 2014):
Like-named read-outs stand apart in the source and are kept apart here.

Assays:
hsMetAP-II = hsMetAP-II (Homo sapiens, UniProt P50579); test: MetAP inhibitory activity, Met-Gly-Met-Met substrate, HPLC detection of Gly-Met-Met; format: biochemical, hs
Protocol: (§1) The below protocol describes the measurement of the inhibitory activity of the compounds of the present invention by using E. coli MetAP, hsMetAP-I, and hsMetAP-II.
Inhibition activity of compounds was studied using the tetrapeptide substrate Met-Gly-Met-Met (Bachem) followed by HPLC analysis of the product Gly-Met-Met. The assay was performed in 96 well plates (Greiner) at a total reaction volume of 100 µl. […] Then the substrate Met-Gly-Met-Met was added to a final concentration of 400 µM. After an incubation period of 15 minutes (HsMetAP-I), 20 minutes (EcMetAP) or 60 minutes (HsMetAP-II) at 37 °C, the enzyme reaction was stopped by adding 10 µl 4 % trifluoroacetic acid. The plate was centrifuged at 1000 x g for 10 minutes.
(§2) Detection of the product Gly-Met-Met was performed by HPLC (Jasco), and typically using the following, or equivalent conditions: C18 column (Dr. Maisch, ReproSil-Pur® 120 ODS-3, 3 µm, 50 x 2 mm). 80 µl of sample were applied on the column and eluted with mobile phase A (water and 0.1 % trifluoroacetic acid, filtered, degassed) and B (acetonitrile and 0.1 % trifluoroacetic acid, degassed) over 8 minutes.
(§3) Percentage inhibition was calculated as the relation of Gly-Met-Met amount resulting in inhibited and uninhibited enzyme reaction (positive control). […] The values were determined in relation to positive controls with equal DMSO contents. The inhibition values for the varying concentrations of inhibitor were then fitted to a logarithmic dose-response curve and the IC50 values were calculated from the equation thus obtained.

hsMetAP-I = hsMetAP-I (Homo sapiens, UniProt P53582); test: as above; format: biochemical, hs; details: single concentration: inhibitor 25 µM, enzyme 50 nM, 15 minutes substrate incubation at 37 °C
Protocol: as §1
(§4) Inhibition activity of compounds was studied using the tetrapeptide substrate Met-Gly-Met-Met (Bachem) followed by HPLC analysis of the product Gly-Met-Met. The assay was performed in 96 well plates (Greiner) at a total reaction volume of 100 µl. […] A positive control with DMSO solution instead of inhibitor at the corresponding concentration was prepared. Then the substrate Met-Gly-Met-Met was added to a final concentration of 400 µM. After an incubation period of 15 minutes (HsMetAP-I), 20 minutes (EcMetAP) or 60 minutes (HsMetAP-II) at 37 °C, the enzyme reaction was stopped by adding 10 µl 4 % trifluoroacetic acid. The plate was centrifuged at 1000 x g for 10 minutes.
as §2, §3

E. coli MetAP = E. coli MetAP (Escherichia coli, UniProt P0AE18); test: as above; format: biochemical; details: for inhibition at 25 µM: read-out: E. Coli % inhibition; for E. Coli % inhibition: single concentration: inhibitor 25 µM, enzyme 50 nM, 20 minutes substrate incubation at 37 °C
Chain of E. coli MetAP (P0AE18 whole entry): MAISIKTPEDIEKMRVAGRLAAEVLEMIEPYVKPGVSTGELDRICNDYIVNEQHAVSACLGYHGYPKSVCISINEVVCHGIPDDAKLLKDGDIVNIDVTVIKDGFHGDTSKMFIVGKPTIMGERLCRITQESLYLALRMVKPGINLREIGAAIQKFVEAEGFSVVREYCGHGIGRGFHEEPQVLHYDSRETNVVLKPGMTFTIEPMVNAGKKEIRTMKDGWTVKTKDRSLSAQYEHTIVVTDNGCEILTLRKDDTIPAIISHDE
Protocol: as §1, §4, §2, §3

[1] = tested on: human umbilical vein endothelial cells (HUVEC); test: HUVEC growth arrest, crystal violet staining; format: cell-based; details: growth over 10 days, 0-100 µM, OD at 595 nm, read-out: HUVEC IC50
Description: For the measurement of the HUVEC growth arrest (Example 19) and the used materials and equipment were:
• Cells: Primary human umbilical vein cells (HUVEC) were obtained from GIBCO (Cat. C-015-5C). • Cell culture medium: Medium 200 supplemented with LSGS (Gibco, Cat. M-200-500). • Trypsin/EDTA (Gibco, Cat R-001-100) • Trypsin Neutralizer solution (Gibco, Cat R-002-100). • Crystal violet (Merck / Cat. no. 1408) • Ethanol (Riedel-de-Haen / Cat. no. 32205) • Acetic acid (Riedel-de-Haen / Cat. no. 33209) • Culture flasks: Coming, 430168 • 96 well plates: Greiner, 655 101
• Microtiter pipettes: •Brand Transferpette-8, • Gilson Pipetman 20 and 200 Laminar air flow cabinet: Gelman, Celaire • ELISA reader: Thermo, Multiskan Ascent • Microscope: Leitz Diavert • Balance: Sartorius RC 210 D • CO2 incubator: Heraeus CO2-Auto-Zero • Centrifuge: Heraeus Biofuge primo • Cell counter: Assistent, Neubauer hematocytometer
Crystal violet solution: • Crystal violet (Merck) was dissolved in ethanol (PA quality, Roth) to a concentration of 10 %. The solution was diluted with ddH2O 1:20.
Test compounds: • Compounds of the present invention were dissolved at a concentration of 10 mM in DMSO (Roth, Cat. 47201). Stock solutions of test compounds were diluted 1:10 not earlier than 1 hour before the assay was made.
• 1. HUVEC cells were seeded in 96-well plates ([…]). • 2. 6 hours later test compounds were added in triplicates Concentrations of test compound: 0, 1.6, 3.2, 6.3, 12.5, 25, 50, 100 µM. Fresh medium and test compounds were added every 48 hr. • 3. One 96 well plate (t=0) with untreated cells was fixed at the same time point as treatment of cells with test compounds was initiated. • 4. Test plates were incubated for 10 days in a CO2 incubator. • 5. Fixation of cells: Wells were washed with 100 µL/well PBS. PBS was decanted and 100 µL of 3 % formaldehyde/well was added. After 5 min, formaldehyde was decanted and plates were dried upside down on blotting paper overnight at room temperature. • 6. Staining: 0.1 mL of crystal violet solution was added to each well with a 12-channel pipette. After incubation for 5 min at room temperature, the crystal violet solution was decanted and plates were washed 5 x by submersion in 3 L fresh water. • 7. After drying (plates were dried on blotting paper upside down overnight) 0.1 mL of ethanol/acetic acid (99:1) was added to each well and the optical density at 595 nm was determined in an ELISA reader.
The evaluation of the growth inhibitory activity was carried out as follows: • Definitions: Growth: Mean OD at t=10 d - mean OD at t=0. • Evaluation: Dose response curves were established by plotting growth against concentration of compounds using Microsoft Excel.

[2] = background, Phase II clinical compound; cited from earlier work
[3] = hsMetAP-II IC50, enzyme 50 nM, 400 µM Met-Gly-Met-Met, 60 minutes at 37 °C
[4] = read-out: hsMetAP-II % inhibition, single concentration: inhibitor 25 µM, enzyme 50 nM, 60 minutes substrate incubation at 37 °C
[5] = single concentration: inhibitor 25 µM, enzyme 50 nM, 60 minutes substrate incubation at 37 °C
[6] = enzyme 50 nM, 400 µM Met-Gly-Met-Met, 60 minutes at 37 °C, read-out: hsMetAP-II IC50
[7] = single concentration: inhibitor 25 µM, enzyme 50 nM, 60 minutes substrate incubation at 37 °C, read-out: hsMetAP-II % inhibition

Chain of hsMetAP-II (P50579 whole entry): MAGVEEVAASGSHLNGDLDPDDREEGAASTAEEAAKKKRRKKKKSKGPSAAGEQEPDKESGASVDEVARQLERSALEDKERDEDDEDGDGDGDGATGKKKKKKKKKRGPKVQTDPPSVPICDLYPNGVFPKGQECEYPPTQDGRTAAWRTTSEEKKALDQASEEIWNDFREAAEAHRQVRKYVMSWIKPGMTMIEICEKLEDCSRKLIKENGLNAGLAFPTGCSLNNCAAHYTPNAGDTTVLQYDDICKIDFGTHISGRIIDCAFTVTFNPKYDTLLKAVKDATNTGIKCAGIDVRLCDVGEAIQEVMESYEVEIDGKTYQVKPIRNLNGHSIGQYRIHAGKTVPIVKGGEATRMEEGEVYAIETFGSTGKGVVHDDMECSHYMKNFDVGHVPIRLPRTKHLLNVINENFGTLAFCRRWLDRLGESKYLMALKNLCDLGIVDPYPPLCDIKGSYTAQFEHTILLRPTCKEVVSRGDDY

| Structure (SMILES) | inhibitory effect on MetAP-II (in words) (hsMetAP-II) | IC50 (hsMetAP-II; [3]) [nM] | inhibition at 25 µM (hsMetAP-II; [4]) [%] | hsMetAP-I % inhibition (hsMetAP-I) | inhibition at 25 µM (E. coli MetAP) [%] | IC50 ([1]; Homo sapiens, HUVEC, 240 h) [µM] | IC50 (hsMetAP-II) [nM] | hsMetAP-II % inhibition (hsMetAP-II; [5]) [%] | E. Coli % inhibition (E. coli MetAP) | IC50 [1] [µM] | IC50 (hsMetAP-II; [6]) [nM] | inhibition at 25 µM (hsMetAP-II; [7]) [%] | plasma half-life [2] |
| --- | --- | --- | --- | --- | --- | --- | --- | --- | --- | --- | --- | --- | --- |
| CC(C)NC(=O)O[C@@H]1CC[C@]2(CO2)c2c1nnn2Cc1ccccc1 (racemic) [UWU-XII-128-A] | good inhibitory effect | 420 ± 70 | 100 | Inactive | 24 ± 2 | 1.2 |  |  |  |  |  |  |  |
| CC(C)NC(=O)O[C@@H]1CC[C@@]2(CO2)c2c1nnn2Cc1ccccc1 (racemic) [UWU-XII-128-C] |  | 18000 ± 9000 | 60 ± 5 | Inactive | 18 ± 2 | 9.5 |  |  |  |  |  |  |  |
| COc1ccc(Cn2nnc3c2C2(CCC3OC(=O)NCC(C)C)CO2)cc1 (racemic) [UWU-XII-142-A] |  |  | 100 | Inactive | 18.7 ± 0.8 | 2.4 | 150 ± 30 |  |  |  |  |  |  |
| COc1ccc(Cn2nnc3c2C2(CCC3OC(=O)Nc3ccccc3)CO2)cc1 (racemic) [UWU-XII-149-A] |  | 990 ± 50 |  | Inactive |  |  |  | 100 | Inactive | 3.2 |  |  |  |
| COc1ccc(Cn2nnc3c2C2(CCC3OC(=O)Nc3ccccc3)CO2)cc1 (racemic) [UWU-XIII-005-A] |  | 18000 ± 5000 |  | Inactive |  |  |  | 44 ± 6 | Inactive | 14.9 |  |  |  |
| O=C1CCC2(CO2)c2c1nnn2Cc1ccc(C(F)(F)F)cc1 (centres unmarked) [BK-I-161-A] | good inhibitory effect |  |  | Inactive |  | 0.9 |  |  | Inactive |  | 520 ± 50 | 100 |  |
| O=C1CCC2(CO2)c2c1nnn2CC1CCCCC1 (centres unmarked) [BK-I-177-A] |  |  |  | Inactive | 19 ± 5 | 9.7 |  |  |  |  | 17000 ± 6000 | 40 ± 3 |  |
| O=C1CCC2(CO2)c2c1nnn2Cc1ccc(F)cc1 (centres unmarked) [BK-I-178-A] |  |  |  | Inactive | 13 ± 5 | 3.2 |  |  |  |  | 870 ± 90 | 100 |  |
| O=C1CCC2(CO2)c2c1nnn2Cc1ccc(Cl)cc1 (centres unmarked) [BK-I-184-A] |  |  |  | Inactive | 14 ± 5 | 7.4 |  |  |  |  | 740 ± 30 | 100 |  |
| COc1ccc(Cn2nnc3c2C2(CCC3=O)CO2)cc1 (centres unmarked) [HHS-I-028-B] | good inhibitory effect |  |  | Inactive |  | 8.8 |  |  | Inactive |  | 980 ± 30 | 97 ± 0.3 |  |
| CO[C@@H]1[C@H](OC(=O)NC(=O)CCl)CC[C@]2(CO2)[C@H]1[C@@]1(C)O[C@@H]1CC=C(C)C [TNP-470] |  |  |  |  |  |  |  |  |  |  |  |  | ~ 2 min |
| COc1ccc(Cn2nnc3c2C2(CCC3OC(=O)NCC(N)=O)CO2)cc1 (centres unmarked) [UWU-XII-143-A] |  | 230 ± 20 | 100 | Inactive | 12 ± 1 | 2.6 |  |  |  |  |  |  |  |
